Test results: US8119563B2, “N-substituted azacycles” (FMC Corporation, priority 2003, dated 2012)

Tested on: tobacco budworm (Heliothis virescens [Fabricius])
Assay: surface-treated diet test, insecticidal activity against tobacco budworm
Assay type: in vivo
Conditions: 0.25 millimoles of candidate insecticide on the surface of the diet, second instar larvae, five-day exposure; for Percent Mortality: compared to total number of insects infested; for Percent Growth Inhibition: inhibition of insect weight relative to untreated controls
Protocol: Candidate insecticides were evaluated for activity against the tobacco budworm (Heliothis virescens [Fabricius]) in a surface-treated diet test.
In this test one mL of molten (65-70° C.) wheat germ-based artificial diet was pipetted into each well of a four by six (24 well) multi-well plate (ID# 430345-15.5 mm dia.×17.6 mm deep; Corning Costar Corp., One Alewife Center, Cambridge, Mass. 02140). The diet was allowed to cool to ambient temperature before treatment with candidate insecticide.
For a determination of insecticidal activity, solutions of the candidate insecticides were prepared for testing using a Packard 204DT Multiprobe® Robotic System (Packard Instrument Company, 800 Research Parkway, Meriden, Conn. 06450), in which the robot first diluted a standard 50 millimolar DMSO solution of candidate insecticide with a 1:1 water/acetone solution (V/V) in a ratio of 1:7 stock solution to water/acetone. The robot subsequently pipetted 40 microliters of the so-prepared solution onto the surface of the diet in each of three wells in the 24 multi-well plate. The process was repeated with solutions of seven other candidate insecticides. Once treated, the contents of the multi-well plate were allowed to dry, leaving 0.25 millimoles of candidate insecticide on the surface of the diet, or a concentration of 0.25 millimolar. Appropriate untreated controls containing only DMSO on the diet surface were also included in this test.
For evaluations of the insecticidal activity of a candidate insecticide at varying rates of application, the test was established as described above using sub-multiples of the standard 50 millimolar DMSO solution of candidate insecticide. For example, the standard 50 millimolar solution was diluted by the robot with DMSO to give 5, 0.5, 0.05, 0.005, 0.0005 millimolar, or more dilute solutions of the candidate insecticide. In these evaluations there were six replicates of each rate of application placed on the surface of the diet in the 24 multi-well plate, for a total of four rates of application of candidate insecticide in each plate.
In each well of the test plate was placed one second instar tobacco budworm larvea, each weighing approximately five milligrams. After the larvae were placed in each well, the plate was sealed with clear polyfilm adhesive tape. The tape over each well was perforated to ensure an adequate air supply. The plates were then held in a growth chamber at 25° C. and 60% relative humidity for five days (light 14 hours/day).
After the five-day exposure period insecticidal activity for each rate of application of candidate insecticide was assessed as percent inhibition of insect weight relative to the weight of insects from untreated controls, and percent mortality when compared to the total number of insects infested.
The test compounds of formula I are identified by numbers that correspond to those in Table 1.

SMILES	Percent Mortality [%]	Percent Growth Inhibition [%]
CC(O)c1ccc(C(c2ccc(OC(F)(F)F)cc2)C2(O)CCN(Cc3ccc(Oc4ccccn4)cc3)CC2)cc1 (mixture of isomers) [Compound 287]	100	100
CC1(C)C(C=C(Cl)C(F)(F)F)C1C(=O)[O-].OC1(C(c2ccc(C(F)(F)F)cc2)c2ccc(C(F)(F)F)cc2)CC[N+](O)(Cc2ccc(Oc3ccc(Cl)nn3)cc2)CC1 (mixture of isomers) [Compound 519]	100	100
OC1(C(c2ccc(F)cc2)c2ccc(OC(F)(F)F)cc2)CCN(Cc2ccc(Oc3ccccn3)cc2)CC1 (racemic) [Compound 268]	100	100
OC1(C(c2ccc(OC(F)F)cc2)c2ccc(OC(F)(F)F)cc2)CCN(Cc2ccc(Oc3ccccn3)cc2)CC1 (racemic) [Compound 269]	100	100
OC(c1ccc(Cl)cc1)c1ccc(CN2CCC(O)(C(c3ccc(OC(F)(F)F)cc3)c3ccc(OC(F)(F)F)cc3)CC2)cc1 (racemic) [Compound 278]	100	100
OC(c1ccc(CN2CCC(O)(C(c3ccc(OC(F)(F)F)cc3)c3ccc(OC(F)(F)F)cc3)CC2)cc1)c1ccccn1 (racemic) [Compound 282]	100	100
CC(C)=CCCC(C)=CCON=Cc1ccc(C(c2ccc(OC(F)(F)F)cc2)C2(O)CCN(Cc3ccc(Oc4ccccn4)cc3)CC2)cc1 (racemic) [Compound 284]	17	100
OC1(C(c2ccccc2)c2ccc(OC(F)(F)F)cc2)CCN(Cc2ccc(Oc3ccccn3)cc2)CC1 (racemic) [Compound 288]	100	100
CC(=O)OC(c1ccc(Cl)cc1)c1ccc(CN2CCC(O)(C(c3ccc(OC(F)(F)F)cc3)c3ccc(OC(F)(F)F)cc3)CC2)cc1 (racemic) [Compound 289]	100	100
OC1(C(c2ccc(OC(F)(F)F)cc2)c2ccc(C3OCCO3)cc2)CCN(Cc2ccc(Oc3ccccn3)cc2)CC1 (racemic) [Compound 295]	100	100
OC1(C(c2ccccc2Cl)c2ccccc2Cl)CCN(Cc2ccc(Oc3ncccn3)cc2)CC1 [Compound 1]	0	57
OC1(C(c2ccc(OC(F)(F)F)cc2)c2ccc(C(F)(F)F)cc2)CCN(Cc2ccc(Oc3ncccn3)cc2)CC1 (centres unmarked) [Compound 2]	100	100
OC1(C(c2ccc(C(F)(F)F)cc2)c2cc(Cl)cc(Cl)c2)CCN(Cc2ccc(Oc3ncccn3)cc2)CC1 (centres unmarked) [Compound 3]	100	100
OC1(C(c2ccc(Cl)c(F)c2)c2ccc(Cl)c(F)c2)CCN(Cc2ccc(Oc3ncccn3)cc2)CC1 [Compound 4]	100	100
COc1cc(OC)cc(C(c2ccc(C(F)(F)F)cc2)C2(O)CCN(Cc3ccc(Oc4ncccn4)cc3)CC2)c1 (centres unmarked) [Compound 5]	0	97
OC1(C(c2ccc(Cl)cc2)c2ccc(C(F)(F)F)cc2)CCN(Cc2ccc(Oc3ncccn3)cc2)CC1 (centres unmarked) [Compound 7]	100	100
OC1(C(c2cccc(F)c2)c2cccc(F)c2)CCN(Cc2ccc(Oc3ncccn3)cc2)CC1 [Compound 8]	0	41
OC1(C(c2ccc(C(F)(F)F)cc2)c2ccc(Cl)c(Cl)c2)CCN(Cc2ccc(Oc3ncccn3)cc2)CC1 (centres unmarked) [Compound 9]	100	100
OC1(C(c2cc(F)cc(F)c2)c2cc(F)cc(F)c2)CCN(Cc2ccc(Oc3ncccn3)cc2)CC1 [Compound 10]	0	50
